According to paper PMC9206137, “Synergistic anti-SARS-CoV-2 activity of repurposed anti-parasitic drug combinations” (BMC Pharmacology & Toxicology, 2022):
“And” between values parts separate entries of the source, which are not always exact repeats. Identical values can stand only once.

Assays:
Vero E6 cells = assay: Cell viability assay (MTT) in Vero E6 cells; conditions: replicates; for %cell viability: Vero E6; for cell viability: Vero E6 cells
Procedure: (§1) Subsequently, the cell viability was assessed using MTT dyes (Invitrogen) in duplicate (Supplementary file 1). The procedure was described elsewhere. The viability of drug-treated cells was expressed as percent cell viability relative to 0.5% DMSO-treated cells.

[1] = Cell viability assay (MTT) in Vero E6 cells; conditions: African green monkey, Vero E6 cells
Procedure: as §1

SARS-CoV-2 [2] = assay: microbe, parasite or virus in culture; format: cell-based; conditions: for % inhibition: Calu-3 cells
SARS-CoV-2 [3] = assay: Antiviral activity against SARS-CoV-2 in Vero E6 cells, one-step qRT-PCR (single drugs, two-drug combinations, synergy analysis); conditions: for %inhibition (qRT-PCR) / % inhibition: replicates; for % inhibition: Vero E6 cells
Calu-3 cells = assay: Cell viability assay (MTT) in Calu-3 cells; conditions: replicates; for %cell viability: Calu-3; for cell viability: Calu-3 cells
Procedure: as §1

[4] = Cell viability assay (MTT) in Calu-3 cells; conditions: human, Calu-3 cells
Procedure: as §1

SARS-CoV-2 [5] = assay: Antiviral activity against SARS-CoV-2 in Vero E6 cells, plaque assay; format: cell-based

Compound: O=C(Nc1ccc([N+](=O)[O-])cc1Cl)c1cc(Cl)ccc1O [Niclosamide, niclosamide]
- %cell viability (Vero E6 cells; niclosamide 0.00390625 uM): 92.84%
- %cell viability (Vero E6 cells; niclosamide 0.0078125 uM): 91.90%
- %cell viability (Vero E6 cells; niclosamide 0.015625 uM): 92.98%
- %cell viability (Vero E6 cells; niclosamide 0.03125 uM): 90.36%
- %cell viability (Vero E6 cells; niclosamide 0.0625 uM): 90.95%
- %cell viability (Vero E6 cells; niclosamide 0.125 uM): 88.11%
- %cell viability (Vero E6 cells; niclosamide 0.25 uM): 54.41%
- %cell viability (Vero E6 cells; niclosamide 0.5 uM): 25.91%
- cell viability (Vero E6 cells; Niclosamide 0.01125 uM alone): 91.66 and 92.98
- cell viability (Vero E6 cells; Niclosamide 0.0225 uM alone): 92.73 and 90.36
- cell viability (Vero E6 cells; Niclosamide 0.045 uM alone): 94.97 and 90.95
- cell viability (Vero E6 cells; Niclosamide 0.09 uM alone): 89.48 and 90.50
- CC50 at 48 h [1]: 290 nM
- viability at 48 h, 0.00390625 uM ([1]; %cell viability, Vero E6, niclosamide 0.00390625 uM, replicates): 98.6%
- viability at 48 h, 0.0078125 uM ([1]; %cell viability, Vero E6, niclosamide 0.0078125 uM, replicates): 97.7%
- viability at 48 h, 0.015625 uM ([1]; %cell viability, Vero E6, niclosamide 0.015625 uM, replicates): 91.7%
- viability at 48 h, 0.03125 uM ([1]; %cell viability, Vero E6, niclosamide 0.03125 uM, replicates): 92.7%
- viability at 48 h, 0.0625 uM ([1]; %cell viability, Vero E6, niclosamide 0.0625 uM, replicates): 95%
- viability at 48 h, 0.125 uM ([1]; %cell viability, Vero E6, niclosamide 0.125 uM, replicates): 91.3%
- viability at 48 h, 0.25 uM ([1]; %cell viability, Vero E6, niclosamide 0.25 uM, replicates): 59.2%
- viability at 48 h, 0.5 uM ([1]; %cell viability, Vero E6, niclosamide 0.5 uM, replicates): 20.1%
- SI (SARS-CoV-2 [2]; Calu-3): 28.1
- %inhibition (plaque assay) (SARS-CoV-2 [2]; Calu-3, niclosamide 0.039063 uM, replicates): 23.81% (2×) and 35.24%
- %inhibition (plaque assay) (SARS-CoV-2 [2]; Calu-3, niclosamide 0.078125 uM, replicates): 35.24% and 39.05%
- %inhibition (plaque assay) (SARS-CoV-2 [2]; Calu-3, niclosamide 0.15625 uM, replicates): 35.24% and 42.86% and 20.00%
- %inhibition (plaque assay) (SARS-CoV-2 [2]; Calu-3, niclosamide 0.3125 uM, replicates): 69.52% and 61.90%
- %inhibition (plaque assay) (SARS-CoV-2 [2]; Calu-3, niclosamide 0.625 uM, replicates): 61.90%
- %inhibition (plaque assay) (SARS-CoV-2 [2]; Calu-3, niclosamide 1.25 uM, replicates): 69.52% and 80.95%
- % inhibition (SARS-CoV-2 [2]; Niclosamide 0.05 uM alone, replicates): 33.33% and 13.33% (2×)
- % inhibition (SARS-CoV-2 [2]; Niclosamide 0.10 uM alone, replicates): 40.00%
- % inhibition (SARS-CoV-2 [2]; Niclosamide 0.40 uM alone, replicates): 70.00%
- inhibition at 0.039063 µM (SARS-CoV-2 [2]; Severe acute respiratory syndrome coronavirus 2, Calu-3, Calu-3, niclosamide 0.039063 uM, replicates, read-out: %inhibition (plaque assay)): 31.4%
- inhibition at 0.078125 µM (SARS-CoV-2 [2]; Severe acute respiratory syndrome coronavirus 2, Calu-3, Calu-3, niclosamide 0.078125 uM, replicates, read-out: %inhibition (plaque assay)): 31.4%
- inhibition at 0.1 µM (SARS-CoV-2 [2]; Severe acute respiratory syndrome coronavirus 2, Calu-3, Calu-3, niclosamide 0.1 uM alone): 46.7 ± 6.67%
- inhibition at 0.2 µM (SARS-CoV-2 [2]; Severe acute respiratory syndrome coronavirus 2, Calu-3, Calu-3, niclosamide 0.2 uM alone): 53.3 ± 6.67%
- inhibition at 0.3125 µM (SARS-CoV-2 [2]; Severe acute respiratory syndrome coronavirus 2, Calu-3, Calu-3, niclosamide 0.3125 uM, replicates, read-out: %inhibition (plaque assay)): 73.3%
- inhibition at 0.4 µM (SARS-CoV-2 [2]; Severe acute respiratory syndrome coronavirus 2, Calu-3, Calu-3, niclosamide 0.4 uM alone): 61.1 ± 8.39%
- inhibition at 0.625 µM (SARS-CoV-2 [2]; Severe acute respiratory syndrome coronavirus 2, Calu-3, Calu-3, niclosamide 0.625 uM, replicates, read-out: %inhibition (plaque assay)): 65.7%
- inhibition at 1.25 µM (SARS-CoV-2 [2]; Severe acute respiratory syndrome coronavirus 2, Calu-3, Calu-3, niclosamide 1.25 uM, replicates, read-out: %inhibition (plaque assay)): 73.3%
- inhibition at 0.1 µM (SARS-CoV-2 [2]; Severe acute respiratory syndrome coronavirus 2, Calu-3, Calu-3 cells, Niclosamide 0.10 uM alone, replicates): 53.3%
- inhibition at 0.2 µM (SARS-CoV-2 [2]; Severe acute respiratory syndrome coronavirus 2, Calu-3, Calu-3 cells, Niclosamide 0.20 uM alone, replicates): 53.3%
- inhibition at 0.4 µM (SARS-CoV-2 [2]; Severe acute respiratory syndrome coronavirus 2, Calu-3, Calu-3 cells, Niclosamide 0.40 uM alone, replicates): 60%
- IC50 (SARS-CoV-2 [2]; Severe acute respiratory syndrome coronavirus 2, Calu-3, 500 TCID50, plaque assay, single drug): 200 nM
- %inhibition (qRT-PCR) (SARS-CoV-2 [3]; Vero E6, niclosamide 0.00390625 uM): 21.23% and 16.04% and 7.08%
- %inhibition (qRT-PCR) (SARS-CoV-2 [3]; Vero E6, niclosamide 0.0078125 uM): 27.36% and 22.17% and 24.53%
- %inhibition (qRT-PCR) (SARS-CoV-2 [3]; Vero E6, niclosamide 0.015625 uM): 29.25% and 17.92% and 28.30%
- %inhibition (qRT-PCR) (SARS-CoV-2 [3]; Vero E6, niclosamide 0.03125 uM): 29.72% and 33.96% and 20.28%
- %inhibition (qRT-PCR) (SARS-CoV-2 [3]; Vero E6, niclosamide 0.0625 uM): 52.36% and 36.32% and 72.26%
- %inhibition (qRT-PCR) (SARS-CoV-2 [3]; Vero E6, niclosamide 0.125 uM): 95.05% and 87.83% and 93.92%
- % inhibition (SARS-CoV-2 [3]; Niclosamide 0.01125 uM alone): 6.05% and 30.26% and 19.89% and 3.41%
- % inhibition (SARS-CoV-2 [3]; Niclosamide 0.0225 uM alone): 31.70% and 37.15% and 50.00%
- % inhibition (SARS-CoV-2 [3]; Niclosamide 0.045 uM alone): 62.37% and 59.41% and 53.57%
- % inhibition (SARS-CoV-2 [3]; Niclosamide 0.09 uM alone): 75.85% and 79.12% and 97.76% and 97.32%
- IC50 (SARS-CoV-2 [3]; read-out: IC50 (μM) qRT-PCR, Vero E6, MOI 0.01, 48 hours, single drug): 0.043 µM
- %cell viability (Calu-3 cells; niclosamide 0.019531 uM): 102.92%
- %cell viability (Calu-3 cells; niclosamide 0.039063 uM): 104.17%
- %cell viability (Calu-3 cells; niclosamide 0.078125 uM): 109.86%
- %cell viability (Calu-3 cells; niclosamide 0.15625 uM): 107.64%
- %cell viability (Calu-3 cells; niclosamide 0.3125 uM): 99.17%
- %cell viability (Calu-3 cells; niclosamide 0.625 uM): 104.86%
- %cell viability (Calu-3 cells; niclosamide 1.25 uM): 97.36%
- %cell viability (Calu-3 cells; niclosamide 2.5 uM): 82.64%
- %cell viability (Calu-3 cells; niclosamide 5 uM): 54.44%
- cell viability (Calu-3 cells; Niclosamide 0.05 uM alone): 96.54 and 92.66
- cell viability (Calu-3 cells; Niclosamide 0.10 uM alone): 89.85 and 85.75
- cell viability (Calu-3 cells; Niclosamide 0.20 uM alone): 98.27 and 86.39
- cell viability (Calu-3 cells; Niclosamide 0.40 uM alone): 103.02 and 98.49
- CC50 at 48 h [4]: 5620 nM
- viability at 48 h, 0.019531 uM ([4]; %cell viability, Calu-3, niclosamide 0.019531 uM, replicates): 92.2%
- viability at 48 h, 0.039063 uM ([4]; %cell viability, Calu-3, niclosamide 0.039063 uM, replicates): 102%
- viability at 48 h, 0.078125 uM ([4]; %cell viability, Calu-3, niclosamide 0.078125 uM, replicates): 109%
- viability at 48 h, 0.15625 uM ([4]; %cell viability, Calu-3, niclosamide 0.15625 uM, replicates): 100%
- viability at 48 h, 0.3125 uM ([4]; %cell viability, Calu-3, niclosamide 0.3125 uM, replicates): 100%
- viability at 48 h, 0.625 uM ([4]; %cell viability, Calu-3, niclosamide 0.625 uM, replicates): 107%
- viability at 48 h, 1.25 uM ([4]; %cell viability, Calu-3, niclosamide 1.25 uM, replicates): 96.5%
- viability at 48 h, 2.5 uM ([4]; %cell viability, Calu-3, niclosamide 2.5 uM, replicates): 85%
- viability at 48 h, 5 uM ([4]; %cell viability, Calu-3, niclosamide 5 uM, replicates): 59.4%
- inhibition at 0.00390625 µM (SARS-CoV-2 [5]; Severe acute respiratory syndrome coronavirus 2, Vero C1008, Vero E6, niclosamide 0.00390625 uM, replicates): 11.5%
- inhibition at 0.015625 µM (SARS-CoV-2 [5]; Severe acute respiratory syndrome coronavirus 2, Vero C1008, Vero E6, niclosamide 0.015625 uM, replicates): 23.2%
- inhibition at 0.03125 µM (SARS-CoV-2 [5]; Severe acute respiratory syndrome coronavirus 2, Vero C1008, Vero E6, niclosamide 0.03125 uM, replicates): 23.7%
- inhibition at 0.0625 µM (SARS-CoV-2 [5]; Severe acute respiratory syndrome coronavirus 2, Vero C1008, Vero E6, niclosamide 0.0625 uM, replicates): 40.1%
- inhibition at 0.125 µM (SARS-CoV-2 [5]; Severe acute respiratory syndrome coronavirus 2, Vero C1008, Vero E6, niclosamide 0.125 uM, replicates): 84.6%
- IC50 (SARS-CoV-2 [5]; Severe acute respiratory syndrome coronavirus 2, Vero C1008, Vero E6, MOI 0.01, 48 hours, single drug): 0.049 µM
- %inhibition (plaque assay) (SARS-CoV-2 [5]; Vero E6, niclosamide 0.00390625 uM, replicates): 9.45% and 9.72%
- %inhibition (plaque assay) (SARS-CoV-2 [5]; Vero E6, niclosamide 0.0078125 uM, replicates): 5.39% and 21.29% and 14.01%
- %inhibition (plaque assay) (SARS-CoV-2 [5]; Vero E6, niclosamide 0.015625 uM, replicates): 25.26% and 23.12%
- %inhibition (plaque assay) (SARS-CoV-2 [5]; Vero E6, niclosamide 0.03125 uM, replicates): 28.44% and 31.03%
- %inhibition (plaque assay) (SARS-CoV-2 [5]; Vero E6, niclosamide 0.0625 uM, replicates): 40.15% and 40.02%
- %inhibition (plaque assay) (SARS-CoV-2 [5]; Vero E6, niclosamide 0.125 uM, replicates): 97.12% and 94.56%
